Reference: paper PMC3778450, “Agonists and antagonists induce different palonosetron dissociation rates in 5-HT3A and 5-HT3AB receptors^” (Neuropharmacology, 2013)
pIC50, pKd, pKi: −log10 of the molar value. Where two headings read alike, the source gives them in different places. Each block holds one molecule with its values, some of them ahead of it.

Legend:
[1] = tested on: 5-HT3 receptor-expressing HEK293 cells; conditions: cited from earlier work; for [3H]palonosetron remaining: ref Rojas et al., 2010
5-HT3A receptors [2] = target: T1, 5-HT3A receptors (Homo sapiens, UniProt P46098); assay: Radioligand association and dissociation kinetics, HEK293 membranes; type: binding; parameters: dissociation k−1 (mean ± S.E.M): unit: h−1
T1 construct: expressed in transfected cells; host or cells: HEK293
T1 sequence (P46098 24-478): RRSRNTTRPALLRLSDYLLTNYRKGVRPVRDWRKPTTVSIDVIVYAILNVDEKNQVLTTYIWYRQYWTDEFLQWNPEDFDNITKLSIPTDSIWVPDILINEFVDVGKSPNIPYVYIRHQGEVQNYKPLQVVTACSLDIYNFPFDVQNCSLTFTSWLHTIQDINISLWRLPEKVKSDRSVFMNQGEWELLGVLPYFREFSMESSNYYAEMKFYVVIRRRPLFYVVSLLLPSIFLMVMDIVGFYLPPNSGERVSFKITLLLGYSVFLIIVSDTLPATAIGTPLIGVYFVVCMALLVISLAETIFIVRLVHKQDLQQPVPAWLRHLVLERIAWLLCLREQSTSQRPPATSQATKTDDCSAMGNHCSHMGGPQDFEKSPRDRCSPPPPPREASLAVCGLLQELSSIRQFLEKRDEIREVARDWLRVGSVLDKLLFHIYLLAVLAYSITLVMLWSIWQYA
Description: (§1) Human embryonic kidney (HEK) 293 cells were maintained on 90 mm tissue culture plates at 37 °C and 7% CO2 in a humidified atmosphere. They were cultured in DMEM:F12 (Dulbecco's Modified Eagle Medium/Nutrient Mix F12 (1:1)) with GlutaMAX™ I media containing 10% foetal calf serum and passaged when confluent. For radioligand binding studies cells in 90 mm dishes were transfected using PEI and incubated for 3–4 days before use. For functional studies cells were plated on 96 well plates, transfected using the Neon transfection system (Invitrogen) and incubated 1–2 days before assay. Mutagenesis reactions were performed using QuikChange (Agilent Technologies Inc., CA, USA) using human 5-HT3A or 5-HT3B receptor subunit cDNA (accession numbers: P46098 or O95264) in pcDNA3.1 (Invitrogen, Paisley, UK). Subunit numberings have been altered to the aligning residues in the mouse 5-HT3A receptor.
(§2) Briefly, transfected HEK293 cells were washed twice with phosphate buffered saline (PBS) at room temperature and scraped into 1 ml of ice-cold HEPES buffer (10 mM, pH 7.4) containing the following proteinase inhibitors (PI): 1 mM EDTA, 50 μg ml^−1 soybean trypsin inhibitor, 50 μg/ml bacitracin and 0.1 mM phenylmethylsulphonyl fluoride. […] Non-specific binding was determined using 10 μM quipazine. […] All samples were terminated by vacuum filtration using a Brandel cell harvester onto GF/B filters pre-soaked in 0.3% polyethyleneimine. Radioactivity was determined by scintillation counting using a Beckman LS6000SC (Fullerton, California, USA).
(§3) Data were analysed by iterative curve fitting using Prism software (GraphPad, San Diego, California, USA). Determination of Ki values was performed using the Cheng–Prusoff equation. Values are presented as mean ± SEM, n = 3–6.

5-HT3A receptors [3] = target: T1, 5-HT3A receptors; assay: [3H]palonosetron saturation binding, HEK293 membranes; conditions: 24 h, 4 °C
Description: as §1, with “Mutagenesis reactions were performed using QuikChange (Agilent Technologies Inc., CA, USA) using human 5-HT3A or 5-HT3B receptor subunit cDNA (accession numbers: P46098 or O95264) in pcDNA3.1 (Invitrogen, Paisley, UK). Subunit numberings have been altered to the aligning residues in the mouse 5-HT3A receptor.” left out
(§4) Briefly, transfected HEK293 cells were washed twice with phosphate buffered saline (PBS) at room temperature and scraped into 1 ml of ice-cold HEPES buffer (10 mM, pH 7.4) containing the following proteinase inhibitors (PI): 1 mM EDTA, 50 μg ml^−1 soybean trypsin inhibitor, 50 μg/ml bacitracin and 0.1 mM phenylmethylsulphonyl fluoride. […] Non-specific binding was determined using 10 μM quipazine. […] Radioactivity was determined by scintillation counting using a Beckman LS6000SC (Fullerton, California, USA).
(§5) Data were analysed by iterative curve fitting using Prism software (GraphPad, San Diego, California, USA). […]

5-HT3AB receptors [4] = target: T2, 5-HT3AB receptors (Homo sapiens, UniProt P46098); assay: as above; conditions: 24 h, 4 °C
T2 construct: expressed in transfected cells; host or cells: HEK293
T2 sequence (P46098 24-478): T1 sequence (P46098 24-478)
T2 sequence (O95264 22-441 partner): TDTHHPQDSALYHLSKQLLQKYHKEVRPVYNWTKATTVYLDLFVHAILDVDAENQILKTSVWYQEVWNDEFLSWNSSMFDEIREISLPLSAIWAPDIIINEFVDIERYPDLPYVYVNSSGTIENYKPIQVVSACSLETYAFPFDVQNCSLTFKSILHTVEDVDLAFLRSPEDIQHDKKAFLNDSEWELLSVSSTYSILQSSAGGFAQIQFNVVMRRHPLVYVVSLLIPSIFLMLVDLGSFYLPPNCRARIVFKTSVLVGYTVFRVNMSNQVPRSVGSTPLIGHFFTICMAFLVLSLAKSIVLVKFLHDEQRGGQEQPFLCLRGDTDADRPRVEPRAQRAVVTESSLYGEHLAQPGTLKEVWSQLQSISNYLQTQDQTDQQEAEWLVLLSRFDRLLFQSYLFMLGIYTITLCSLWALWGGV
Description: as §1, with “Mutagenesis reactions were performed using QuikChange (Agilent Technologies Inc., CA, USA) using human 5-HT3A or 5-HT3B receptor subunit cDNA (accession numbers: P46098 or O95264) in pcDNA3.1 (Invitrogen, Paisley, UK). Subunit numberings have been altered to the aligning residues in the mouse 5-HT3A receptor.” left out
as §4, §5

5-HT3AB receptors [5] = target: T2, 5-HT3AB receptors; assay: Radioligand association and dissociation kinetics, HEK293 membranes; type: binding; parameters: dissociation k−1 (mean ± S.E.M): unit not given here
Description: as §1, §2, §3

5-HT3 receptors = tested on: 5-HT3 receptors; parameters: method as in Wong et al., 1995; conditions: ref Wong et al., 1995, cited from earlier work
[6] = target: T3, 5-HT3 receptors expressed in oocytes (Homo sapiens, UniProt P46098); assay: Recovery from palonosetron inhibition after washout in oocytes; type: cell-based; conditions: after a 10 min wash; data not shown
T3 sequence (P46098 24-478): T1 sequence (P46098 24-478)

[7] = target: 5-HT3 receptors, human hippocampus; parameters: method as in Wong et al., 1995; conditions: ref Wong et al., 1995; cited from earlier work
5-HT3A receptors [8] = target: T1, 5-HT3A receptors; assay: Flexstation membrane potential dye assay, inhibition of 5-HT-induced responses; type: cell-based; conditions: for relative Fmax: relative to 0 palonosetron (100%), typical example; for pIC50: read-out: IC50
Description: as §1
(§6) Fluorescence was measured in a FLEXstation™ (Molecular Devices Ltd., Wokingham, UK) every 2 s for 200 s using the acquisition software SOFTmax® PRO v4.3.
as §3

5-HT3AB receptors [9] = target: T2, 5-HT3AB receptors; assay: as above; type: cell-based; conditions: for relative Fmax: relative to 0 palonosetron (100%), typical example
Description: as §1, §6, §3

[10] = tested on: 5-HT3 receptors, transfected HEK293 cells; parameters: method as in Rojas et al., 2008; conditions: ref Rojas et al., 2008; cited from earlier work
[11] = tested on: 5-HT3 receptors, NG108-15 cells; parameters: method as in Wong et al., 1995; conditions: ref Wong et al., 1995; cited from earlier work
5-HT3A receptors [12] = target: T1, 5-HT3A receptors; assay: [3H]granisetron competition binding, HEK293 membranes; conditions: displacement of [3H]granisetron
Description: as §1, §2, §3

5-HT3AB receptors [13] = target: T2, 5-HT3AB receptors; assay: as above; conditions: displacement of [3H]granisetron
Description: as §1, §2, §3

[14] = displacing ligand 5-HT (100 μM)
[15] = displacing ligand MDL72222 (1 μM)
[16] = displacing ligand quipazine (10 μM)
[17] = displacing ligand unlabelled palonosetron (100 nM)
[18] = agonist-induced dissociation (5-HT or quipazine)
[19] = palonosetron preincubated 45 min before 5-HT, HEK293 cells, read-out: pIC50 (converted)

association k (5-HT3A receptors [2]): 0.16 ± 0.03
association t1/2 (5-HT3A receptors [2]): 4.1 min
[3H]palonosetron remaining (5-HT3A receptors [2]; after 2 h dissociation in the presence of MDL72222): 67 ± 7%
dissociation k−1 (mean ± S.E.M) (5-HT3A receptors [2]; [14]): 0.032 ± 0.005
dissociation t1/2 (5-HT3A receptors [2]; [14]): 21.9 h
dissociation k−1 (mean ± S.E.M) (5-HT3A receptors [2]; [15]): 0.29 ± 0.03
dissociation k−1 (mean ± S.E.M) (5-HT3A receptors [2]; [16]): 0.056 ± 0.003
dissociation t1/2 (5-HT3A receptors [2]; [16]): 12.5 h
dissociation k−1 (mean ± S.E.M) (5-HT3A receptors [2]; [17]): 0.44 ± 0.05
dissociation t1/2 (5-HT3A receptors [2]; [17]): 1.5 h
pKd (5-HT3A receptors [3]): 9.47
pKd (5-HT3AB receptors [4]): 9.82
association k (5-HT3AB receptors [5]): 0.35 ± 0.06
association t1/2 (5-HT3AB receptors [5]): 2.0 min
dissociation k−1 (mean ± S.E.M) (5-HT3AB receptors [5]; [14]): 0.057 ± 0.008
dissociation t1/2 (5-HT3AB receptors [5]; [14]): 12.1 h
dissociation k−1 (mean ± S.E.M) (5-HT3AB receptors [5]; [15]): 0.41 ± 0.04
dissociation k−1 (mean ± S.E.M) (5-HT3AB receptors [5]; [16]): 0.068 ± 0.003
dissociation t1/2 (5-HT3AB receptors [5]; [16]): 10.1 h
dissociation k−1 (mean ± S.E.M) (5-HT3AB receptors [5]; [17]): 0.68 ± 0.08
Compound: O=C1c2cccc3c2[C@H](CCC3)CN1[C@@H]1CN2CCC1CC2 [[^3H]palonosetron]
[3H]palonosetron remaining associated ([1]; HEK293 cells after a 2.5 h wash, ref Rojas et al. (2008)): 53 ± 11%
[3H]palonosetron remaining ([1]; cell-free membrane preparation after a 60 min wash): 2%
[3H]palonosetron remaining ([1]; cells after a 60 min wash): 65%
time to complete association (5-HT3 receptors; previously reported): under 10 min

dissociation t1/2 (5-HT3A receptors [2]; [18]): > 10 h
dissociation t1/2 (5-HT3A receptors [2]; [15]): 2.3 h
dissociation t1/2 (5-HT3A receptors [2]; [17]): 1.5 h
original response recovered after washout [6]: < 10%
dissociation t1/2 (5-HT3AB receptors [5]; [18]): > 10 h
dissociation t1/2 (5-HT3AB receptors [5]; [15]): 1.7 h
dissociation t1/2 (5-HT3AB receptors [5]; [17]): 1.0 h
relative Fmax (5-HT3A receptors [8]; 0.1 nM palonosetron): 70%
relative Fmax (5-HT3A receptors [8]; 0.3 nM palonosetron): 40%
pIC50 (5-HT3A receptors [8]; palonosetron co-applied with 5-HT, HEK293 cells): 7.08
pIC50 (5-HT3A receptors [8]; palonosetron preincubated 45 min before 5-HT, HEK293 cells): 9.62
IC50 (5-HT3A receptors [8]; [19]): 0.245 nM
relative Fmax (5-HT3AB receptors [9]; 0.1 nM palonosetron): 62%
relative Fmax (5-HT3AB receptors [9]; 0.3 nM palonosetron): 28%
pIC50 (5-HT3AB receptors [9]; palonosetron preincubated 45 min before 5-HT, HEK293 cells, read-out: IC50): 9.74
IC50 (5-HT3AB receptors [9]; [19]): 0.186 nM
pIC50 (5-HT3A receptors [12]; 4 °C): 9.22
pKi (5-HT3A receptors [12]; Cheng–Prusoff): 9.52
pIC50 (5-HT3AB receptors [13]; 4 °C): 9.15
pKi (5-HT3AB receptors [13]; Cheng–Prusoff): 9.46
Compound: O=C1c2cccc3c2[C@H](CCC3)CN1[C@@H]1CN2CCC1CC2 [Palonosetron, palonosetron]
pKd [7]: 9.82
pKd [10]: 9.70
pKd [11]: 10.30
dissociation t½ (5-HT3 receptors; previous studies): 8 to 10 min
